This is an account of results in patent US10287298B2, “Nitrogen-containing analogs of salinomycin, synthesis and use against cancer stem cells and malaria” (Centre National de la Recherche Scientifique (CNRS), priority 2014, dated 2019).

The structures appear in SMILES notation.

This test has as its system HMLER CD24low cells. Kind of test: Intracellular sodium measurement (SBFI-AM). Type of test: cell-based, Human. The conditions noted are these: 5 min treatment. As to the method: Intracellular sodium measurement: Sodium and potassium buffers (10 mM HEPES, 1 mM CaCl2, 1 mM MgCl2, 130 mM Sodium-D-Gluconate or Potassium-D-Gluconate, 30 mM NaCl/KCl) were mixed at different ratios to produce five buffers with various sodium concentrations (0, 20, 40, 80, 160 mM). Nigericin (N7143, Sigma, 10 μM) and monensin (M5273, Sigma, 10 μM) were used to equilibrate the intracellular sodium concentration and establish a calibration curve. HMLER CD24low cells were harvested and re-suspended in ECS buffer (15 mM HEPES, 5.4 mM KCl, 140 mM NaCl, 10 mM Glucose, 1 mM MgCl2, 1.8 mM CaCl2, 0.1% BSA, pH 7.6) containing 10 μM of the sodiumspecific probe (SBFI-AM, S-1263, Molecular Probes®) and 0.2% Pluronic F-127 (P2443, Sigma) and were incubated for 1 h in the dark at 37° C. Then, cells were washed to remove excess dye and incubated for an additional 30 min in ECS buffer. […] Each well was sequentially excited at 340 and 370 nm and emission was recorded at 500 nm. The spectral response of SBFI upon sodium binding was assessed by excitation ratio measurement (340/370 nm). Measurements were performed on a Perkin Elmer Wallac 1420 Victor2 Microplate Reader at 37° C.

Regarding `CCC(C(=O)O)[C@H]1CC[C@H](C)C([C@@H](C)[C@H](O)[C@H](C)C(=O)[C@H](CC)[C@H]2O[C@]3(C=C[C@@H](O)[C@]4(CC[C@@](C)([C@H]5CC[C@](O)(CC)[C@H](C)O5)O4)O3)[C@H](C)C[C@@H]2C)O1` (stereo partly shown) [Salinomycine, Salinomycin], the intracellular sodium result was “induced a fast increase in intracellular sodium”.
